We go through two molecules from patent US11667946B2, “Detection of beta-hemolytic pathogens” (TEMASEK LIFE SCIENCES LABORATORY LIMITED, priority 2016, dated 2023).

One data set relates to gram-negative bacteria. As to the kind of experiment: Uptake of free H33342 by bacteria on BHI agar. It counts as cell-based. Here is the method:
(§1) Uptake of free H33342 by bacteria: The uptake of free H33342 was investigated by repeating the experiment as above but replacing liposomal H33342 with free H33342 dye (final concentration, 160 nM). Sodium hexametaphosphate (305553, Sigma-Aldrich) was added to a concentration of up to 0.3% for membrane permeabilization experiments.

Another data set concerns gram-positive bacteria. In words: Uptake of free H33342 by bacteria on BHI agar. Format: cell-based. Conditions: 160 nM, overnight. Here is the method: as §1
For a further data set, the system named is a variety of bacteria. As to the kind of experiment: Culturing bacteria on BHI agar with free H33342. To be noted: 160 nM. It counts as cell-based. Here is the method:
as §1

The next data set deals with E. coli. In words: Membrane permeabilization with sodium hexametaphosphate (H33342 uptake). Format: cell-based, Escherichia coli. To be noted: H33342 agar with sodium hexametaphosphate. Here is the method: as §1
The test system of a further data set is S. pyogenes. The description is as above. Format: cell-based, Streptococcus pyogenes. To be noted: at 0.3%. As for the experimental part:
as §1

Regarding `CCOc1ccc(-c2nc3ccc(-c4nc5ccc(N6CCN(C)CC6)cc5[nH]4)cc3[nH]2)cc1` [H33342, Hoechst 33342], the uptake of dye entry in the data set on gram-negative bacteria is listed as “not taken up”. Besides, the “colony association with / uptake of free dye” value with gram-positive bacteria was “fluoresce blue”. Further, the lethality to bacteria entry in the data set with a variety of bacteria is on record as “non-lethal”.

As to `O=P1([O-])OP(=O)([O-])OP(=O)([O-])OP(=O)([O-])OP(=O)([O-])OP(=O)([O-])O1.[Na+].[Na+].[Na+].[Na+].[Na+].[Na+]` [sodium hexametaphosphate], in the data set on E. coli, the “increase of colony fluorescence” value is reported as 80%. The lethality to bacterium entry in the data set with S. pyogenes is reported as “lethal”.
